Laboratory results: article PMC5526999, “Mass Spectrometry Imaging proves differential absorption profiles of well-characterised permeability markers along the crypt-villus axis” (Scientific Reports, 2017)

What was measured:
[1] = MALDI-MSI of drug distribution in rat small intestine after oral cassette administration; format: in vivo; settings: oral 10 µmol/kg
Method: Male rats (Han-Wistar, ~ 100 days old, body-weight ~ 300 g) were used in this study. […] All experiments were performed in accordance with relevant guidelines and regulations, the animal work was approved by the Local Animal Research Ethics Board of Gothenburg, Sweden. […] Four animals were dosed in this study, and non-dosed tissue was prepared from control rats in parallel. […] Therefore, in the present study we focussed on the concept of “vertical” absorption gradients along the crypt-villous axis, which has not been studied earlier. The intestine was removed under anaesthesia using isoflurane (Forene, Abbott, USA), to ensure full viability and oxygenation of the tissue until the moment of excision. Animals were sacrificed without regaining consciousness by aortal incision and an overdose of isoflurane. Immediately after excision, intestines were divided into 10 cm long segments and each segment was carefully washed with Krebs-Bicarbonate-Ringer buffer (KBR) from the stomach to the large intestine (additional information in Supplementary Data). The first 5–10 mm of each segment were cut, quickly weighed and collected in homogenization tubes for subsequent extraction and LCMS analysis of total drug concentration in the gut-wall. The next 8–9 cm of each segment were prepared for MALDI-MSI analysis. […] The CMC gels quickly on wet-ice/isopropanol and provides tissue support during the subsequent cryosectioning. All samples were stored at −20 °C until cryosectioning. The embedded samples were attached and positioned with OCT-compound (TissueTek) to the specimen holder of a microtome (Cryo-Star HM 560 M, Microm International, Germany) set to −20 °C. The samples were sectioned at 10 µm thickness. […] A control tissue section from the same intestinal region from non-dosed animal was placed on each slide to enable a direct comparison to be made. All slides were kept at −80 °C until MALDI-MSI analysis. Tissue sections were also stained using haematoxylin and eosin (H&E) following a standard histological protocol for fresh frozen tissues. […] Additional optimization was performed using a robotic matrix sprayer (TM-Sprayer, HTX Technologies, USA) in order to minimize delocalization and crystal size, while still maintaining adequate extraction of compound from the tissue. […] An optical image (9600 dpi) of the glass slide was acquired using a flatbed scanner (Epson perfection V500). The tissue sections were coated with DHB (35 mg/ml, 70% ACN, 0.2% TFA) using a robotic sprayer with a flow of rate 70 µl/min, stage speed of 1100 mm/min, track spacing of 2 mm (crisscross pattern), nitrogen pressure 6 psi, and spray nozzle temperature set to 95 °C for 8 passes. […] FlexImaging 4.0 (Bruker Daltonics) and msIQuant 2.0 was used for data analysis, normalization (to total ion count) and ion image extraction.

[2] = LC-ESI MS/MS quantification of drug concentration in intestinal tissue homogenates after oral cassette administration; format: in vivo, rat
Method: Male rats (Han-Wistar, ~ 100 days old, body-weight ~ 300 g) were used in this study. […] All experiments were performed in accordance with relevant guidelines and regulations, the animal work was approved by the Local Animal Research Ethics Board of Gothenburg, Sweden. […] Four animals were dosed in this study, and non-dosed tissue was prepared from control rats in parallel. […] Therefore, in the present study we focussed on the concept of “vertical” absorption gradients along the crypt-villous axis, which has not been studied earlier. The intestine was removed under anaesthesia using isoflurane (Forene, Abbott, USA), to ensure full viability and oxygenation of the tissue until the moment of excision. Animals were sacrificed without regaining consciousness by aortal incision and an overdose of isoflurane. Immediately after excision, intestines were divided into 10 cm long segments and each segment was carefully washed with Krebs-Bicarbonate-Ringer buffer (KBR) from the stomach to the large intestine (additional information in Supplementary Data). The first 5–10 mm of each segment were cut, quickly weighed and collected in homogenization tubes for subsequent extraction and LCMS analysis of total drug concentration in the gut-wall. The next 8–9 cm of each segment were prepared for MALDI-MSI analysis. […] The CMC gels quickly on wet-ice/isopropanol and provides tissue support during the subsequent cryosectioning. All samples were stored at −20 °C until cryosectioning. […] The supernatants were transferred to fresh vials and centrifuged again under the same conditions. […] The samples were analysed by LC-MS/MS and quantified against a calibration standard curve. The LC-MS/MS analysis was performed using an electrospray ionization tandem quadrupole mass spectrometer (Quattro Premier, Waters, USA) in positive ionization mode. The mass spectrometer was integrated with an ultra-performance liquid chromatography (UPLC) system (Acquity, Waters) assisted with a column manager. Chromatography was performed on a column (Acquity UPLC HSS T3, 2.1 × 50 mm) at 40 °C. The flow rate was 1000 µL/min and the injection volume was 5 µL. The mobile phases consisted of A: water, 0.2% (v/v) formic acid and 2% (v/v) acetonitrile and B: acetonitrile, 0.2% (v/v) formic acid. […] Data was acquired using multiple reaction monitoring (MRM) and mass transitions determined by QuanOptimize (Waters). Instrument control and data processing was performed using MassLynx 4.1 software including QuanLynx (Waters).

Caco-2 = tested on: Caco-2; set-up: method as in PMID 1673839, PMID 11259831, PMID 9523990; settings: ref [1], [15] and [48]; cited from earlier work
[3] = set-up: method as in PMID 1673839, PMID 11259831, PMID 9523990; settings: ref [1], [15] and [48]; cited from earlier work
[4] = no reference given; cited from earlier work
[5] = 20 min, 30 cm along the intestine, line graph along crypt-villus axis
[6] = oral 10 µmol/kg, 20 min post administration

Row | SMILES | lower level at 45 min compared to 20 min (MSI) ([1]; 40 cm sample) | distance from the villus tips of significant reduction in abundance [1, 5] | lower tissue concentration at 45 min compared to 20 min (LC-MS/MS) ([2]; oral 10 µmol/kg, 40 cm sample) | intestinal sample with highest concentration [2, 6] [cm] | Caco-2 Papp (Caco-2) | Ion Class [3] | intensity profile from villus tip to base (line graph) ([1]; 20 min, 30 cm along the intestine) | localisation across and within the villi (transverse profile) ([1]; 20 min, profile perpendicular to the villus axis) | distance from the pyloro-duodenal junction of highest concentration (LC-ESI MS/MS homogenates) ([2]; oral 1 µmol/kg, 20 min post administration) [cm] | distance over which the gradient from villus tip towards crypt region runs [1, 5] [µm] | lower tissue concentration at 45 min compared to 20 min (LC-MS/MS) ([2]; male, Han-Wistar, rat, in vivo, po) | Tmax in the rat [4] [min]
1 | CC(C)NCC(O)COc1cccc2ccccc12 (stereo not drawn) [Propranolol] | about 3 fold | 400–500 µm | about 3 fold | 30 | 41.9 1E-6.cm/s | Base | – | – | – | – | – | –
2 | CC(C)NCC(O)COc1ccc(CC(N)=O)cc1 (stereo not drawn) [Atenolol] | – | – | – | 20 | – | Base | maintain similar intensities all the way from the villus tip to the basal regions | localized primarily between the villi | 50 | – | – | –
3 | COCCc1ccc(OCC(O)CNC(C)C)cc1 (stereo not drawn) [Metoprolol] | – | – | – | – | 27.0 1E-6.cm/s | – | – | – | – | 200 | about 3 fold | < 20
